Test results reported in ChEMBL document CHEMBL2203016, “Purpuroines A-J, halogenated alkaloids from the sponge Iotrochota purpurea with antibiotic activity and regulation of tyrosine kinases” (Bioorg Med Chem, 2012).
Converted amounts (≈) assume the structure as drawn. The source made the active and inactive calls. The rule behind the calls is not given here.

Key:
[1] = test system: Aspergillus fumigatus; assay: Antimicrobial activity against Aspergillus fumigatus by microplate reader analysis; type: functional, organism-based
[2] = test system: Candida albicans; assay: Antimicrobial activity against Candida albicans by microplate reader analysis; type: functional, organism-based
[3] = target: Serine/threonine-protein kinase PLK1 (Homo sapiens, UniProt P53350); assay: Inhibition of PLK1
[4] = target: Cyclin-dependent kinase 2 (Homo sapiens, UniProt P24941); assay: Inhibition of CDK2
[5] = target: Tyrosine-protein kinase Lck (Homo sapiens, UniProt P06239); assay: Inhibition of LCK
[6] = test system: Aspergillus flavus; assay: Antimicrobial activity against Aspergillus flavus by microplate reader analysis; type: functional, organism-based
[7] = test system: Fusarium oxysporum; assay: Antimicrobial activity against Fusarium oxysporum by microplate reader analysis; type: functional, organism-based
[8] = test system: Pseudomonas aeruginosa; assay: Antimicrobial activity against Pseudomonas aeruginosa by microplate reader analysis; type: functional, organism-based
[9] = test system: Saccharomyces cerevisiae; assay: Antimicrobial activity against Saccharomyces cerevisiae by microplate reader analysis; type: functional, organism-based
[10] = test system: Staphylococcus aureus; assay: Antimicrobial activity against Staphylococcus aureus by microplate reader analysis; type: functional, organism-based
[11] = test system: Escherichia coli; assay: Antimicrobial activity against Escherichia coli by microplate reader analysis; type: functional, organism-based
[12] = test system: Aspergillus fumigatus; assay: Antimicrobial activity against Aspergillus fumigatus at 20 ug/ml by microplate reader analysis; type: functional, organism-based
[13] = test system: Candida albicans; assay: Antimicrobial activity against Candida albicans at 20 ug/ml by microplate reader analysis; type: functional, organism-based
[14] = test system: Streptococcus pneumoniae; assay: Antimicrobial activity against Streptococcus pneumoniae at 20 ug/ml by microplate reader analysis; type: functional, organism-based
[15] = test system: Streptococcus pneumoniae; assay: Antimicrobial activity against Streptococcus pneumoniae by microplate reader analysis; type: functional, organism-based
[16] = Aspergillus fumigatus, read-out: IC50
[17] = Candida albicans, read-out: IC50
[18] = Streptococcus pneumoniae, read-out: IC50

Tyrosine-protein kinase Lck, sequence (P06239 whole entry): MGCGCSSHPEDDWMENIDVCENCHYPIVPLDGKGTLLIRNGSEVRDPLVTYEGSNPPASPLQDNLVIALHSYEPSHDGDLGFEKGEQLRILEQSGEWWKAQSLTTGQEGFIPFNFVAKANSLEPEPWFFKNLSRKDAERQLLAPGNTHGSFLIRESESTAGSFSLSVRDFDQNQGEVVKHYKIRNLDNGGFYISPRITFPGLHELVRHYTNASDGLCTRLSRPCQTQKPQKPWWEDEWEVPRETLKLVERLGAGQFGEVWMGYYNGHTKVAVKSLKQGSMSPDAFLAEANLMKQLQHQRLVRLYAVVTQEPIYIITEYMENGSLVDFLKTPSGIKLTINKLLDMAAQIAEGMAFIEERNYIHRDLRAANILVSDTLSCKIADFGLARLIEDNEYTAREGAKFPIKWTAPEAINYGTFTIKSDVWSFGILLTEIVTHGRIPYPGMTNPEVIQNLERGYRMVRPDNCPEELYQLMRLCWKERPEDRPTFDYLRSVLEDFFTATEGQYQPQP
Serine/threonine-protein kinase PLK1, sequence (P53350 whole entry): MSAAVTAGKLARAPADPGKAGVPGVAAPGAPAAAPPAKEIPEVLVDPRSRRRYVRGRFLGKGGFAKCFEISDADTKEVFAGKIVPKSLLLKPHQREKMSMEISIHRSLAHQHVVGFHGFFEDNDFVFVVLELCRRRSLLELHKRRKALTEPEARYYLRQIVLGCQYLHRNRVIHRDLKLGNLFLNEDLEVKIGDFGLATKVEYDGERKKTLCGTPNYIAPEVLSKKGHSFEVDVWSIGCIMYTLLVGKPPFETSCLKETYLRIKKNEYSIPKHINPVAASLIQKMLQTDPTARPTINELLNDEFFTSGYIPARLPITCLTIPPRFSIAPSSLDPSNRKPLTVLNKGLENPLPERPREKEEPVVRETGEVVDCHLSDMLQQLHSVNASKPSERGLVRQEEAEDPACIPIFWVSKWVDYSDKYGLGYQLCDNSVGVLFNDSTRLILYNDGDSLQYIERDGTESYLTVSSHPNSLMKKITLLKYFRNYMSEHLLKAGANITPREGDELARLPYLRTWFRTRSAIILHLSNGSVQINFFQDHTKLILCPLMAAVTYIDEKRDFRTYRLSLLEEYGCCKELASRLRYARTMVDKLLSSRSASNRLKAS

| Structure (SMILES) | IC50 [1, 16] [µg/mL] | IC50 [2, 17] [µg/mL] | IC50 [3] [µM] | IC50 [4] [µM] | IC50 [5] [µM] | Activity [6] | Activity [7] | Activity [8] | Activity [9] | Activity [10] | Activity [11] | Activity [12] | Activity [13] | Activity [14] | IC50 [15] | IC50 [2] | IC50 [15, 18] [µg/mL] | IC50 [1] |
| --- | --- | --- | --- | --- | --- | --- | --- | --- | --- | --- | --- | --- | --- | --- | --- | --- | --- | --- |
| C[C@@H]1[C@H](O)[C@@H](C)/C=C/C=C/C=C/C=C/C=C/C=C/C=C/[C@H](O[C@@H]2O[C@H](C)[C@@H](O)[C@H](N)[C@@H]2O)C[C@@H]2O[C@](O)(C[C@@H](O)C[C@@H](O)[C@H](O)CC[C@@H](O)C[C@@H](O)CC(=O)O[C@H]1C)C[C@H](O)[C@H]2C(=O)O [AMPHOTERICIN B] | 3.27 (≈ 3.54 µM) | 4.26 (≈ 4.61 µM) |  |  |  |  |  |  |  |  |  |  |  |  |  |  |  |  |
| COc1c(I)cc(C[C@H](C(=O)[O-])[N+](C)(C)C)cc1I [PURPUROINE F] |  |  | 9.24 | > 102 | 14.7 | Active | Active | Active | Active | Active | Active | inactive | inactive | inactive |  |  |  |  |
| C[N+](C)(C)[C@H](Cc1cc(I)c(O)c(I)c1)C(=O)[O-] [PURPUROINE G] |  |  | 21.2 | > 105 | 25 | Active | Active | Active | Active | Active | Active | inactive | inactive | inactive |  |  |  |  |
| C[N+](C)(C)[C@H](CCOc1ccc(Br)cc1Br)C(=O)[O-] [PURPUROINE B] |  |  | > 127 | > 127 | 32.3 | Active | Active | Active | Active | Active | Active | inactive | inactive | inactive |  |  |  |  |
| COc1c(Br)cc(C[C@H](C(=O)[O-])[N+](C)(C)C)cc1I [PURPUROINE H] |  |  | 17.1 | > 113 | 17.9 |  |  |  |  |  |  |  |  |  |  |  |  |  |
| C[N+](C)(C)[C@H](CCOc1c(Br)cc(Br)cc1I)C(=O)[O-] [PURPUROINE D] | 25.6 (≈ 49.1 µM) | 19 (≈ 36.5 µM) | 2.78 | > 96 | 1.8 |  |  |  |  |  |  |  |  |  | Not Active |  |  |  |
| C[N+](C)(C)[C@H](CCOc1c(Br)cc(Br)cc1Br)C(=O)[O-] [PURPUROINE A] | 28.6 (≈ 60.3 µM) |  | > 105 | > 105 | 4.96 |  |  |  |  |  |  |  |  |  | Not Active | Not Active |  |  |
| COC(=O)[C@@H](Cc1c[nH]c2cc(Br)ccc12)[N+](C)(C)C (racemic) |  |  |  |  |  | Active | Active | Active | Active | Active | Active | inactive | inactive | inactive |  |  |  |  |
| CC1(C)S[C@@H]2[C@H](NC(=O)[C@H](N)c3ccccc3)C(=O)N2[C@H]1C(=O)O [AMPICILLIN] |  |  |  |  |  |  |  |  |  |  |  |  |  |  |  |  | 0.38 (≈ 1.09 µM) |  |
| C[N+](C)(C)[C@H](CCOc1c(Cl)cc(Br)cc1Br)C(=O)[O-] |  |  |  |  |  | Active | Active | Active | Active | Active | Active | inactive | inactive | inactive |  |  |  |  |
| C[N+](C)(C)[C@H](CCOc1c(Cl)cc(Br)cc1Cl)C(=O)[O-] [PURPUROINE C] | 26.1 (≈ 67.7 µM) |  | 17.8 | > 130 | 11.7 |  |  |  |  |  |  |  |  |  | Not Active | Not Active |  |  |
| C[N+](C)(C)[C@H](Cc1cc(Br)c(O)c(I)c1)C(=O)[O-] [PURPUROINE I] |  |  | > 117 | > 117 | > 117 |  |  |  |  |  |  | inactive | inactive | inactive |  | Not Active | 18.1 (≈ 42.2 µM) | Not Active |
